The source of these data is ChEMBL document CHEMBL4007387, “Therapeutic evolution of benzimidazole derivatives in the last quinquennial period” (Eur J Med Chem, 2017).

SMILES strings stand for the structures.

Assay [1] relates to Hep 3B2. The assay can be described thus: Antiproliferative activity against human Hep3B cells after 48 hrs by MTT assay. Type of assay: functional, cell-based. Background: Formazan colour is commonly taken as a measure of viable cells.
For assay [2], the system named is PBMC. The assay can be described thus: Antiproliferative activity against human PBMC after 48 hrs by MTT assay. Type of assay: cell-based.
Assay [3] deals with HeLa. Kind of assay: Antiproliferative activity against human HeLa cells after 48 hrs by MTT assay. Format: functional, cell-based.
The test system of assay [4] is MCF7. Kind of assay: Antiproliferative activity against human MCF7 cells after 48 hrs by MTT assay. Format: functional, cell-based. The conditions noted are these: MCF7, 48 h.
In assay [5] the test system is NIH3T3. The assay can be described thus: Antiproliferative activity against mouse NIH/3T3 cells after 72 hrs by real-time cell analysis. Format: cell-based. As to conditions: NIH3T3, 72 h.

As usually defined, the IC50 is the midpoint of a concentration-inhibition curve. A lower IC50 goes with inhibition by little substance. Regarding `Cc1nc2ccccc2n1CC(=O)NN`, the IC50 came out at 40.5 µM in assay [1], 23 µM in assay [2], 5.34 µM in assay [3] and 24.2 µM in assay [4].
`COc1ccc2[nH]c(SCC(=O)Nc3ccc(-c4csc(-c5ccccc5)n4)cc3)nc2c1` had an IC50 in assay [5] of 74.6 µM.
